# Test results taken from the supplement of paper PMC11451515.
# Test system: P12-Ichikawa
# Assay: cell viability relative to DMSO control; higher = less cytotoxic
# Conditions: 48 h
# Procedure, shortened: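 Viability is a per-plate percentage relative to DMSO wells, with cell-free wells as background. CellTiter-Glo One luminescence was read after 48 h at 37°C on 1536-well plates (5 μl) of NOMO1 or SEM (500 cells/well) or P12-Ichikawa (1000 cells/well) leukemia cells. The cells had been adapted for at least four passages in each medium and pin-dosed with library compounds in DMSO from 47 μM to 0.79 nM in 11 threefold steps.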
# [1] = HPLM + 10% dialyzed FBS, 0.000781 µM
# [2] = HPLM + 10% dialyzed FBS, 0.00234 µM
# [3] = HPLM + 10% dialyzed FBS, 0.00702 µM
# [4] = HPLM + 10% dialyzed FBS, 0.0211 µM
# [5] = HPLM + 10% dialyzed FBS, 0.0632 µM
# [6] = HPLM + 10% dialyzed FBS, 0.19 µM
# [7] = HPLM + 10% dialyzed FBS, 0.569 µM
# [8] = HPLM + 10% dialyzed FBS, 1.71 µM
# [9] = HPLM + 10% dialyzed FBS, 5.12 µM
# [10] = HPLM + 10% dialyzed FBS, 15.4 µM
# [11] = HPLM + 10% dialyzed FBS, 46.1 µM
# [12] = RPMI 5 mM glucose + 10% FBS, 0.000781 µM
# [13] = RPMI 5 mM glucose + 10% FBS, 0.00234 µM
# [14] = RPMI 5 mM glucose + 10% FBS, 0.00702 µM
# [15] = RPMI 5 mM glucose + 10% FBS, 0.0211 µM
# [16] = RPMI 5 mM glucose + 10% FBS, 0.0632 µM
# [17] = RPMI 5 mM glucose + 10% FBS, 0.19 µM
# [18] = RPMI 5 mM glucose + 10% FBS, 0.569 µM
# [19] = RPMI 5 mM glucose + 10% FBS, 1.71 µM
# [20] = RPMI 5 mM glucose + 10% FBS, 5.12 µM
# [21] = RPMI 5 mM glucose + 10% FBS, 15.4 µM
# [22] = RPMI 5 mM glucose + 10% FBS, 46.1 µM
# [23] = RPMI 5 mM glucose + 10% dialyzed FBS, 0.000781 µM
# [24] = RPMI 5 mM glucose + 10% dialyzed FBS, 0.00234 µM
# [25] = RPMI 5 mM glucose + 10% dialyzed FBS, 0.00702 µM
# [26] = RPMI 5 mM glucose + 10% dialyzed FBS, 0.0211 µM
# [27] = RPMI 5 mM glucose + 10% dialyzed FBS, 0.0632 µM
# [28] = RPMI 5 mM glucose + 10% dialyzed FBS, 0.19 µM
# [29] = RPMI 5 mM glucose + 10% dialyzed FBS, 0.569 µM
# [30] = RPMI 5 mM glucose + 10% dialyzed FBS, 1.71 µM
# [31] = RPMI 5 mM glucose + 10% dialyzed FBS, 5.12 µM
# [32] = RPMI 5 mM glucose + 10% dialyzed FBS, 15.4 µM
# [33] = RPMI 5 mM glucose + 10% dialyzed FBS, 46.1 µM
SMILES,cell viability [1],cell viability [2],cell viability [3],cell viability [4],cell viability [5],cell viability [6],cell viability [7],cell viability [8],cell viability [9],cell viability [10],cell viability [11],cell viability [12],cell viability [13],cell viability [14],cell viability [15],cell viability [16],cell viability [17],cell viability [18],cell viability [19],cell viability [20],cell viability [21],cell viability [22],cell viability [23],cell viability [24],cell viability [25],cell viability [26],cell viability [27],cell viability [28],cell viability [29],cell viability [30],cell viability [31],cell viability [32],cell viability [33]
C[C@H]1CN(C[C@@H](C)O1)CC(=O)NC2=CC=C3SC4=C(CC3=C2)C=CC=C4\C5=C\C(=O)\C=C(/O5)N6CCOCC6,91.6%,113%,73.7%,110%,110%,123%,116%,108%,107%,80.3%,51.1%,97.8%,113%,66.9%,125%,110%,120%,114%,124%,109%,95.8%,49.8%,94.7%,119%,86.3%,116%,120%,122%,128%,118%,121%,88.1%,48.9%
CO[C@H]1C[C@@H]2CC[C@@H](C)[C@@](O)(O2)C(=O)C(=O)N2CCCC[C@H]2C(=O)O[C@H]([C@H](C)C[C@@H]2CC[C@@H](OP(C)(C)=O)[C@H](OC)C2)CC(=O)[C@H](C)/C=C(\C)[C@@H](O)[C@@H](OC)C(=O)[C@H](C)C[C@H](C)/C=C/C=C/C=C/1C,,,,,,,,,,,,119%,138%,121%,126%,118%,97.7%,122%,96.3%,88.4%,100%,81.4%,,,,,,,,,,,
CC1SC/2=C(C(O)=O)/C(=O)C3=CC(=C(C=C3N12)N4CCN(CC4)C\C5=C(C)\OC(=O)O5)F (stereo not drawn),134%,122%,121%,124%,125%,123%,119%,117%,113%,112%,102%,,,,,,,,,,,,,,,,,,,,,,
C#CCN(C)[C@H](C)Cc1ccccc1,92.5%,93.5%,93.7%,89.8%,106%,93%,73.2%,89.5%,92.7%,80.1%,88.3%,82.9%,82.3%,88.9%,83.7%,92.2%,92.7%,89.3%,82.8%,81.5%,87.9%,89%,79.3%,88.6%,83.1%,86.5%,83.8%,88.3%,93.5%,82%,80.9%,80.2%,79.5%
Cc1cc2c(C(C)C)c(O)c(O)c(C=O)c2c(O)c1-c1c(C)cc2c(C(C)C)c(O)c(O)c(C=O)c2c1O,113%,111%,111%,113%,108%,99.6%,108%,104%,102%,98.1%,17.1%,117%,125%,127%,121%,119%,106%,117%,101%,112%,106%,10.6%,116%,124%,118%,116%,111%,109%,110%,104%,110%,100%,22%
OC[C@H]1O[C@@H](Oc2ccc(O)cc2)[C@H](O)[C@@H](O)[C@@H]1O,85.1%,93.5%,93.1%,95.7%,98.3%,99.9%,102%,101%,94.2%,98.4%,97%,80.7%,79.8%,87%,94.9%,95.7%,86%,84.7%,83.6%,90.9%,93.1%,91.3%,80.1%,84.8%,91.1%,93.4%,93.6%,87.8%,88.4%,88.7%,93.1%,89.6%,88.4%
O=[N+]([O-])c1cn2c(n1)OC[C@@H](OCc1ccc(OC(F)(F)F)cc1)C2,124%,126%,121%,120%,120%,111%,113%,111%,112%,118%,110%,124%,125%,138%,141%,131%,132%,127%,118%,105%,111%,121%,120%,116%,111%,126%,115%,113%,113%,100%,101%,109%,107%
Cc1cc(O)c2c3c4c(cc(O)c13)C(C)(C)C(=O)c1c(O)cc(O)c(c1-4)C2=O,104%,108%,111%,107%,111%,106%,113%,107%,106%,105%,39%,107%,106%,109%,99.8%,114%,107%,115%,109%,110%,97.2%,42.2%,103%,112%,117%,109%,107%,101%,111%,104%,105%,93.2%,35.2%
Cc1ccc(NC(=O)c2ccc(CN3CCN(C)CC3)cc2)cc1Nc1nccc(-c2cccnc2)n1,93.8%,95.7%,105%,97.9%,113%,103%,112%,109%,110%,109%,92.7%,98.2%,107%,101%,96.5%,115%,113%,114%,109%,103%,105%,100%,102%,107%,108%,111%,109%,113%,115%,104%,97.6%,112%,106%
